Experimental data: US20110152218A1, “CRYSTALLINE PHOSPHOLIPID, METHOD FOR ITS PRODUCTION AND USE IN TREATING DAMAGED TISSUE” (priority 2008, published 2011)

Assays:
[1] = system: human peritoneal mesothelial cell (HPMC); assay: HPMC proliferation, Alamar Blue and MTT assay; type: cell-based; settings: 48 hours and 72 hours; over the tested concentrations in supplemented M199
Method: The effect of a phospholipid prepared as described in Example 1 (and/or its constituent compounds) to induce human peritoneal mesothelial cell proliferation was assessed using an Alamar Blue™ assay and an MTT assay.
The Alamar Blue™ assay is designed to measure the proliferation of various cell types by measuring the ability of the cells to metabolise and reduce a REDOX indicator (Alamar Blue™). Reduction of the REDOX indicator results in a change in its fluorescent activity. Therefore the fluorescent activity measured is proportional to cell proliferation.
The MTT Assay measures the proliferations of various cells and is based on the mitochondrial conversion of tetrazolium salt 3-[4,5-dimethyl-thiazol-2-yl]-2,5-diphenyltetrazium bromide (MTT), into an insoluble formazan salt. The resultant colour change is directly related to the number of viable cells.
As described in Morgan L W et al (“Glucose degradation products (GDP) retard re-mesothelialisation independently of D-glucose concentration.” Kidney Int 64:1854-1866, 2003), primary HPMC are isolated from omental tissue biopsies donated by consenting patients undergoing elective abdominal surgery. Cells were grown to approximately 60% confluence in 96 well plates (Falcon) and used at passage 2. All cells were growth arrested in serum free M199 for 24 hours prior to use.
The supplemented M199 medium was prepared as follows. Earle's salt medium M199 was supplemented with 100μ/ml penicillin, 100 μg/ml streptomycin, 2 mM glutamine, 5 μg/ml insulin, 5 μg/ml transferrin and 0.4 μg/ml hydrocortisone and 2 mmol/L N-2-hydroxyethylpiperazine-N′-2ethanesulfonic acid.
The phospholipid prepared as described in Example 1 was prepared as follows. […]
The growth medium was aspirated from each well and then the well was washed once using 200 μl per well of supplemented M199. […] The fluorescent activity of Alamar Blue™ at 540 nm (wavelength) was measured using a Dynex Revalation 96-multiwell plate reader. […]

HPMC = HPMC ATP bioluminescence assay; type: cell-based, human; settings: 72 hours
Method: The viability of HPMC after stimulation with FCS, phospholipid prepared according to Example 1 (Vibrated and Non-vibrated), lysophosphatidic acid (LPA), DPPC, DPPC/LPA, POPC, Curosurf, egg-PG (EPG) and the three Intralipid™ products was determined using an ATP assay. This assay measures the light emitted during the ATP dependant oxidation of luciferin in order to accurately quantify the ATP concentration.
As described in Example 3, primary HPMC are isolated from omental tissue biopsies donated by consenting patients undergoing elective abdominal surgery. Cells are grown to approximately 60% confluence in 96 well plates (Falcon) and used at passage 2. All cells are growth arrested in serum free M199 for 24 hours prior to use.
An ATP Bioluminescence Assay Kit CLS II (Roche Diagnostics, Cat No 1 699 695, 11857300) was used. It contains ATP Standard, Luciferase and distilled water. A 10 mM EDTA solution was prepared by dissolving 1.8612 g EDTA (Fischer Scientific, Code D/0650/60, Batch 0447430, Mr-372.24) in 500 ml H2O (or 3.7224 g in 1 litre). A BAC-extract solution was prepared by dissolving 1 g Benzalkonium Chloride (Sigma-Aldrich, Cat:-23, 442-7, Lot S22104-334) in 1 litre of 10 mM EDTA. […]
To mix, rotate the bottle carefully. • 2) Make up an ATP standard solution having a base concentration of 1.65 μM ATP. […] Use distilled water as the control. • 4) Set the Fluostar Optima plate reader to measure luminescence. Set the Fluostar Optima plate reader pump to inject 20 μl of luciferase into each of the required wells. • 5) Place the plate into the plate reader and measure the relative light units (RLU). • 6) Prepare a standard curve such as that shown in FIG. 16 by plotting a graph of RLU against ATP concentration.
96 well plates from the HPMC proliferation study were defrosted. […] The ATP concentrations were calculated from the RLU of the samples using the standard curve. As an alternative to using an ATP standard curve, data can be normalised to the un-stimulated control and expressed as “ATP (% of control)”.

## Lysophosphatidic acid [LPA]
[1]
  HPMC proliferation compared to the negative control: no significant stimulation of HPMC proliferation
HPMC; single well, over the tested concentrations
  HPMC proliferation by ATP assay (ATP % of control) compared to the negative control: no increase of HPMC proliferation

## CCCCCCCC/C=C\CCCCCCCC(=O)O[C@H](COC(=O)CCCCCCCCCCCCCCC)COP(=O)([O-])OCC[N+](C)(C)C [POPC, Palmitoyl oleoyl phosphatidyl choline]
[1]
  HPMC proliferation compared to the negative control: no significant stimulation of HPMC proliferation
HPMC; 0.0875 mg/ml, FIG. 11G
  HPMC proliferation by ATP assay compared to the negative control: increased HPMC proliferation
